Measurements taken from ChEMBL document CHEMBL5537157, “Selective Antitumor Effect and Lower Toxicity of Mitochondrion-Targeting Derivatization of Triptolide” (J Med Chem, 2024).
Active and inactive are the calls of the source. The rule behind the calls is not given here.

Experiments:
NCI-H1975 [1] = experiment: Cytotoxicity against human NCI-H1975 cells assessed as inhibition of cell viability incubated for 48 hrs by MTT assay; assay type: functional, cell-based; settings: NCI-H1975, 48 h
[2] = Drug accumulation in mitochondria of human NCI-H1975 cells at 120 nM incubated for 5 hrs by Red CMXRos probe based analysis; assay type: ADME; settings: nci-h1975, 5 h, 0.12 µM
NCI-H1975 [3] = experiment: Inhibition of cell viability in human NCI-H1975 cells assessed as effect on cell index at 80 nM by real-time cell analysis; assay type: functional, cell-based
NCI-H460 [4] = experiment: Cytotoxicity against human NCI-H460 cells assessed as inhibition of cell viability incubated for 48 hrs by MTT assay; assay type: functional, cell-based; settings: NCI-H460, 48 h
MCF7 [5] = experiment: Cytotoxicity against human MCF7 cells assessed as inhibition of cell viability incubated for 48 hrs by MTT assay; assay type: functional, cell-based; settings: MCF7, 48 h
A549 [6] = experiment: Cytotoxicity against human A549 cells assessed as inhibition of cell viability incubated for 48 hrs by MTT assay; assay type: functional, cell-based; settings: A549, 48 h
[7] = Cytotoxicity against human BEAS-2B cells assessed as inhibition of cell viability incubated for 48 hrs by MTT assay; assay type: toxicity, cell-based
NCI-H1975 [8] = experiment: Cytotoxicity against human NCI-H1975 cells assessed as cell growth inhibition incubated for 48 hrs by MTT assay relative to control; assay type: functional
BEAS-2B = experiment: Cytotoxicity against human BEAS-2B cells assessed as cell growth inhibition incubated for 48 hrs by MTT assay; assay type: toxicity, cell-based
A549 [9] = experiment: Cytotoxicity against human A549 cells assessed as cell growth inhibition incubated for 48 hrs by MTT assay; assay type: functional, cell-based
MCF7 [10] = experiment: Cytotoxicity against human MCF7 cells assessed as cell growth inhibition incubated for 48 hrs by MTT assay; assay type: functional, cell-based
NCI-H1975 [11] = experiment: Cytotoxicity against human NCI-H1975 cells assessed as cell growth inhibition incubated for 48 hrs by MTT assay; assay type: functional, cell-based
NCI-H460 [12] = experiment: Cytotoxicity against human NCI-H460 cells assessed as cell growth inhibition incubated for 48 hrs by MTT assay; assay type: functional, cell-based

Compound | IC50 (NCI-H1975 [1]) [µM] | Drug uptake [2] | inhibition (NCI-H1975 [3]) | IC50 (NCI-H460 [4]) [µM] | IC50 (MCF7 [5]) [µM] | IC50 (A549 [6]) [µM] | IC50 at 48 h [7] [µM] | Imax (NCI-H1975 [8]) [%] | inhibition (INH) (BEAS-2B) | inhibition (A549 [9]) | inhibition (MCF7 [10]) | inhibition (NCI-H1975 [11]) | inhibition (NCI-H460 [12])
CC(C)[C@]12O[C@H]1[C@@H]1O[C@]13[C@]1(O[C@H]1C[C@H]1C4=C(CC[C@@]13C)C(=O)OC4)[C@@H]2OC(=O)CCCCCCC[n+]1ccc(/C=C/c2c[nH]c3ccccc23)cc1.[Br-] | 0.4 | Active | Active | 17.5 | 7.09 | > 50 | 48.8 | – | – | – | – | – | –
CC(C)[C@]12O[C@H]1[C@@H]1O[C@]13[C@]1(O[C@H]1C[C@H]1C4=C(CC[C@@]13C)C(=O)OC4)[C@]2(O)C=O | > 50 | – | – | > 50 | > 100 | > 100 | > 100 | – | – | – | – | – | –
CC(C)[C@]12O[C@H]1[C@@H]1O[C@]13[C@]1(O[C@H]1C[C@H]1C4=C(CC[C@@]13C)C(=O)OC4)[C@@H]2OC(=O)CCCCC[P+](c1ccccc1)(c1ccccc1)c1ccccc1.[Br-] | 0.14 | – | – | > 10 | > 10 | > 10 | > 10 | ~65 | Dose-Dependent Effect | Dose-Dependent Effect | Dose-Dependent Effect | Dose-Dependent Effect | Dose-Dependent Effect
CC(C)[C@]12O[C@H]1[C@@H]1O[C@]13[C@]1(O[C@H]1C[C@H]1C4=C(CC[C@@]13C)C(=O)OC4)[C@]2(O)CO | > 100 | – | – | > 50 | > 100 | > 100 | > 100 | – | – | – | – | – | –
CC(C)[C@]12O[C@H]1[C@@H]1O[C@]13[C@]1(O[C@H]1C[C@H]1C4=C(CC[C@@]13C)C(=O)OC4)[C@]2(O)COC(=O)CCCCCC[P+](c1ccccc1)(c1ccccc1)c1ccccc1 | > 30 | – | – | > 50 | > 50 | 38.4 | > 30 | – | – | – | – | – | –
COc1cccc2c1C(=O)c1c(O)c3c(c(O)c1C2=O)C[C@@](O)(C(=O)CO)C[C@@H]3O[C@H]1C[C@H](N)[C@H](O)[C@H](C)O1 [DOXORUBICIN] | 2.64 | – | – | 0.581 | – | 2.54 | 42 | – | – | – | – | – | –
CC(C)[C@]12O[C@H]1[C@@H]1O[C@]13[C@]1(O[C@H]1C[C@H]1C4=C(CC[C@@]13C)C(=O)OC4)[C@@H]2OC(=O)CCCCCCCCC[n+]1ccc(/C=C/c2c[nH]c3ccccc23)cc1 | 0.44 | – | – | 5.09 | 6.24 | 24.9 | 11.9 | – | – | – | – | – | –
CC(C)[C@]12O[C@H]1[C@@H]1O[C@]13[C@]1(O[C@H]1C[C@H]1C4=C(CC[C@@]13C)C(=O)OC4)[C@@H]2OC(=O)CCCCCC[n+]1ccc(/C=C/c2c[nH]c3ccccc23)cc1 | 0.27 | – | – | 11.9 | – | 47.8 | 27.9 | – | – | – | – | – | –
CC(C)[C@]12O[C@H]1[C@@H]1O[C@]13[C@]1(O[C@H]1C[C@H]1C4=C(CC[C@@]13C)C(=O)OC4)[C@]2(O)COC(=O)CCCCCCCCC[P+](c1ccccc1)(c1ccccc1)c1ccccc1 | 18.6 | – | – | 26.7 | 30.2 | 23 | 23.6 | – | – | – | – | – | –
CC(C)[C@]12O[C@H]1[C@@H]1O[C@]13[C@]1(O[C@H]1C[C@H]1C4=C(CC[C@@]13C)C(=O)OC4)[C@]2(O)COC(=O)CCCCCCCC[P+](c1ccccc1)(c1ccccc1)c1ccccc1 | 24.7 | – | – | 27.7 | 20.9 | 21.7 | 23.4 | – | – | – | – | – | –
CC(C)[C@]12O[C@H]1[C@@H]1O[C@]13[C@]1(O[C@H]1C[C@H]1C4=C(CC[C@@]13C)C(=O)OC4)[C@]2(O)COC(=O)CCCC[P+](c1ccccc1)(c1ccccc1)c1ccccc1 | > 100 | – | – | > 100 | > 100 | > 100 | > 100 | – | – | – | – | – | –
CC(C)[C@]12O[C@H]1[C@@H]1O[C@]13[C@]1(O[C@H]1C[C@H]1C4=C(CC[C@@]13C)C(=O)OC4)[C@]2(O)COC(=O)CCCCCCC[P+](c1ccccc1)(c1ccccc1)c1ccccc1 | 24.9 | – | – | 29.9 | > 100 | 27.3 | 21.7 | – | – | – | – | – | –
CC(C)[C@]12O[C@H]1[C@@H]1O[C@]13[C@]1(O[C@H]1C[C@H]1C4=C(CC[C@@]13C)C(=O)OC4)[C@]2(O)COC(=O)CCCCC[P+](c1ccccc1)(c1ccccc1)c1ccccc1 | > 100 | – | – | > 50 | > 50 | > 100 | > 50 | – | – | – | – | – | –
C[n+]1ccc(/C=C/c2c[nH]c3ccccc23)cc1 | > 50 | – | – | > 50 | > 100 | > 100 | > 100 | – | – | – | – | – | –
CC(C)[C@]12O[C@H]1[C@@H]1O[C@]13[C@]1(O[C@H]1C[C@H]1C4=C(CC[C@@]13C)C(=O)OC4)[C@@H]2OC(=O)CCCCCCCCCC[n+]1ccc(/C=C/c2c[nH]c3ccccc23)cc1 | 0.34 | – | – | – | 5.26 | > 50 | 12.7 | – | – | – | – | – | –
CC(C)[C@]12O[C@H]1[C@@H]1O[C@]13[C@]1(O[C@H]1C[C@H]1C4=C(CC[C@@]13C)C(=O)OC4)[C@@H]2OC(=O)CCCC[n+]1ccc(/C=C/c2c[nH]c3ccccc23)cc1 | 5.74 | – | – | > 50 | 47.2 | > 50 | 35.7 | – | – | – | – | – | –
CC(C)[C@]12O[C@H]1[C@@H]1O[C@]13[C@]1(O[C@H]1C[C@H]1C4=C(CC[C@@]13C)C(=O)OC4)[C@@H]2OC(=O)CCCCC[n+]1ccc(/C=C/c2c[nH]c3ccccc23)cc1 | 2.86 | – | – | 3.12 | 16.7 | > 50 | 94.3 | – | – | – | – | – | –
C1=CCC(P(c2ccccc2)c2ccccc2)C=C1 (stereo not given) | > 100 | – | – | > 100 | > 100 | > 100 | > 100 | – | – | – | – | – | –
